Bridge positions count the residues as written; N and C are the ends. Ends that are not written are not given here. COCH2 = acetyl group that carries the bridge
Tested on: Recombinant Human FGFR1 alpha (IIIc) Fc Chimera Protein
Assay: Binding affinity of enzymatically synthesized cyclic peptide to FGFR by ELISA
Settings: luminescence signal at reaction concentration 10 nmol/L, SEQ ID NO: 39 standardized to 1, enzyme synthesis product
Method in brief: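 Graded A–D from luminescence at 10 nmol/L peptide, expressed relative to SEQ ID NO: 39 after subtracting wells lacking receptor. Read-out used anti-Myc antibody (2 h, RT) with chemiluminescent substrate, following 3 h RT binding of peptide to immobilized FGFR1α(IIIc)-Fc, 5 ng per well.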

Substance: 208 (HCSYERLQFHGHEAPFRTK(COCH2)V; thioether 2-19 via Ac; not fully specified) [compound 208]
- Evaluation result of binding affinity to FGFR: C (0.1 or more and less than 0.5)

Substance: 334 (HCSYERLIFLGHIAPFWVK(COCH2)V; thioether 2-19 (inferred)) [compound 334]
- Evaluation result of binding affinity to FGFR: B (0.5 or more and less than 0.7)

Substance: 152 (HCSYERLNFHGHEAPFRVK(COCH2)V; thioether 2-19 (inferred)) [compound 152]
- Evaluation result of binding affinity to FGFR: A (0.7 or more)

Substance: 278 (SCIVPLYIYGWRAPYWLK(COCH2)V; thioether 2-18 (inferred)) [compound 278]
- Evaluation result of binding affinity to FGFR: C (0.1 or more and less than 0.5)

Substance: 335 (HCSYERLIFRGHIAPFWVK(COCH2)V; thioether 2-19 (inferred)) [compound 335]
- Evaluation result of binding affinity to FGFR: A (0.7 or more)

Substance: 203 (HCSYERLQFHGHEAPFRIK(COCH2)V; thioether 2-19 via Ac; not fully specified) [compound 203]
- Evaluation result of binding affinity to FGFR: A (0.7 or more)

Substance: 262 (FCYQRLYFQGHIAPYWFVK(COCH2)D; thioether 2-19 (inferred)) [compound 262]
- Evaluation result of binding affinity to FGFR: B (0.5 or more and less than 0.7)

Substance: 328 (HCSYERLIFHGHIAPFWVK(COCH2)V; thioether 2-19 (inferred)) [compound 328]
- Evaluation result of binding affinity to FGFR: A (0.7 or more)

Substance: 146 (HCSYERLLFHGHEAPFRVK(COCH2)V; thioether 2-19 (inferred)) [compound 146]
- Evaluation result of binding affinity to FGFR: A (0.7 or more)

Substance: 166 (HCSYERLQFVGHEAPFRVK(COCH2)V; thioether 2-19 (inferred)) [compound 166]
- Evaluation result of binding affinity to FGFR: A (0.7 or more)

Substance: 116 (HCSYERLQFHGHEAQFRVK(COCH2)V; thioether 2-19 (inferred)) [compound 116]
- Evaluation result of binding affinity to FGFR: C (0.1 or more and less than 0.5)

Substance: 115 (HCSYERLQFHGHEANFRVK(COCH2)V; thioether 2-19 (inferred)) [compound 115]
- Evaluation result of binding affinity to FGFR: B (0.5 or more and less than 0.7)

Substance: 261 (QCQWNIYRHQWAPFWVIEK(COCH2)S; thioether 2-19 (inferred)) [compound 261]
- Evaluation result of binding affinity to FGFR: C (0.1 or more and less than 0.5)

Substance: 271 (QCWSQVSTPWGHTAPFIFK(COCH2)D; thioether 2-19 (inferred)) [compound 271]
- Evaluation result of binding affinity to FGFR: B (0.5 or more and less than 0.7)

Substance: 150 (HCSYERLYFHGHEAPFRVK(COCH2)V; thioether 2-19 (inferred)) [compound 150]
- Evaluation result of binding affinity to FGFR: A (0.7 or more)

Substance: 180 (HCSYERLQFHGHVAPFRVK(COCH2)V; thioether 2-19 via Ac) [compound 180]
- Evaluation result of binding affinity to FGFR: A (0.7 or more)

Substance: 295 (MCSYERLQFHGHEAPFRVK(COCH2)V; thioether 2-19 (inferred)) [compound 295]
- Evaluation result of binding affinity to FGFR: A (0.7 or more)

Substance: 86 (HCVYERLQFHGHEAPFRVKV; not fully specified; Description of Artificial Sequence: Cyclic peptide) [compound 86]
- Evaluation result of binding affinity to FGFR: A (0.7 or more)

Substance: 273 (QCYVQLYVWGHPAPFYWDK(COCH2)N; thioether 2-19 (inferred)) [compound 273]
- Evaluation result of binding affinity to FGFR: C (0.1 or more and less than 0.5)

Substance: 298 (HCSYMRLQFHGHEAPFRVK(COCH2)V; thioether 2-19 (inferred)) [compound 298]
- Evaluation result of binding affinity to FGFR: B (0.5 or more and less than 0.7)

Substance: 220 (HCSYERLQFHGHEAPFRVK(COCH2)D; thioether 2-19 (inferred)) [compound 220]
- Evaluation result of binding affinity to FGFR: C (0.1 or more and less than 0.5)

Substance: 357 (ACWLRHIYQGHQAPFLIWSTK(COCH2)Y; thioether 2-21) [compound 357]
- Evaluation result of binding affinity to FGFR: C (0.1 or more and less than 0.5)

Substance: 56 (ACSYERLQFHGHEAPFRVK(COCH2)V; thioether 2-19 (inferred)) [compound 56]
- Evaluation result of binding affinity to FGFR: A (0.7 or more)

Substance: 348 (PCTGWTPLYFFGKRAPFLVNK(COCH2)A; thioether 2-21) [compound 348]
- Evaluation result of binding affinity to FGFR: C (0.1 or more and less than 0.5)

Substance: 78 (TCSYERLQFHGHEAPFRVKV; not fully specified; Description of Artificial Sequence: Cyclic peptide) [compound 78]
- Evaluation result of binding affinity to FGFR: A (0.7 or more)

Substance: 247 (ACKYVPHIFQQHQAPYLVK(COCH2)S; thioether 2-19 (inferred)) [compound 247]
- Evaluation result of binding affinity to FGFR: B (0.5 or more and less than 0.7)

Substance: 329 (HCSYERLRFHGHIAPFWVK(COCH2)V; thioether 2-19 (inferred)) [compound 329]
- Evaluation result of binding affinity to FGFR: A (0.7 or more)

Substance: 57 (HCAYERLQFHGHEAPFRVK(COCH2)V; thioether 2-19 (inferred)) [compound 57]
- Evaluation result of binding affinity to FGFR: A (0.7 or more)

Substance: 149 (HCSYERLFFHGHEAPFRVK(COCH2)V; thioether 2-19 (inferred)) [compound 149]
- Evaluation result of binding affinity to FGFR: A (0.7 or more)

Substance: 74 (WCSYERLQFHGHEAPFRVK(COCH2)V; thioether 2-19 (inferred)) [compound 74]
- Evaluation result of binding affinity to FGFR: A (0.7 or more)

Substance: 204 (HCSYERLQFHGHEAPFRFK(COCH2)V; thioether 2-19 via Ac; not fully specified) [compound 204]
- Evaluation result of binding affinity to FGFR: C (0.1 or more and less than 0.5)

Substance: 239 (HK(COCH2)TWERLIFLGHIAPFLVCR; thioether 2-19 (inferred)) [compound 239]
- Evaluation result of binding affinity to FGFR: B (0.5 or more and less than 0.7)

Substance: 302 (HCSYERLQMHGHEAPFRVK(COCH2)V; thioether 2-19 (inferred)) [compound 302]
- Evaluation result of binding affinity to FGFR: B (0.5 or more and less than 0.7)

Substance: 358 (NCWVQWFLSGHVVPFLVSLK(COCH2)S; thioether 2-20) [compound 358]
- Evaluation result of binding affinity to FGFR: C (0.1 or more and less than 0.5)

Substance: 224 (HK(COCH2)SYERLQFHGHEAPFRVCV; thioether 2-19 (inferred)) [compound 224]
- Evaluation result of binding affinity to FGFR: B (0.5 or more and less than 0.7)

Substance: 209 (HCSYERLQFHGHEAPFRHK(COCH2)V; thioether 2-19 via Ac; not fully specified) [compound 209]
- Evaluation result of binding affinity to FGFR: B (0.5 or more and less than 0.7)

Substance: 35 (CDRTLLYYRLSC; disulfide 1-12 (inferred)) [compound 35]
- Evaluation result of binding affinity to FGFR: D (less than 0.1)

Substance: 112 (HCSYERLQFHGWEAPFRVK(COCH2)V; thioether 2-19 (inferred)) [compound 112]
- Evaluation result of binding affinity to FGFR: B (0.5 or more and less than 0.7)

Substance: 174 (HCSYERLQFEGHEAPFRVK(COCH2)V; thioether 2-19 (inferred)) [compound 174]
- Evaluation result of binding affinity to FGFR: B (0.5 or more and less than 0.7)

Substance: 359 (WCPWGDIHVVPFHK(COCH2)V; thioether 2-14) [compound 359]
- Evaluation result of binding affinity to FGFR: C (0.1 or more and less than 0.5)

Substance: 169 (HCSYERLQFWGHEAPFRVK(COCH2)V; thioether 2-19 (inferred)) [compound 169]
- Evaluation result of binding affinity to FGFR: A (0.7 or more)

Substance: 254 (WCQLRFQGHLAPFIILK(COCH2)H; thioether 2-17 (inferred)) [compound 254]
- Evaluation result of binding affinity to FGFR: C (0.1 or more and less than 0.5)

Substance: 101 (HCSWERLQFHGHEAPFRVK(COCH2)V; thioether 2-19 (inferred)) [compound 101]
- Evaluation result of binding affinity to FGFR: A (0.7 or more)

Substance: 355 (RCYFSRQGFWPFTYKLPFWVK(COCH2)H; thioether 2-21) [compound 355]
- Evaluation result of binding affinity to FGFR: C (0.1 or more and less than 0.5)

Substance: 117 (HCSYERLQFHGHEADFRVK(COCH2)V; thioether 2-19 (inferred)) [compound 117]
- Evaluation result of binding affinity to FGFR: B (0.5 or more and less than 0.7)

Substance: 141 (HCSYEHLQFHGHEAPFRVK(COCH2)V; thioether 2-19 (inferred)) [compound 141]
- Evaluation result of binding affinity to FGFR: C (0.1 or more and less than 0.5)

Substance: 349 (HCLEQLVYGGDTAPFWIVVFK(COCH2)D; thioether 2-21) [compound 349]
- Evaluation result of binding affinity to FGFR: C (0.1 or more and less than 0.5)

Substance: 200 (HCSYERLQFHGHEAPFTVK(COCH2)V; thioether 2-19 via Ac; not fully specified) [compound 200]
- Evaluation result of binding affinity to FGFR: A (0.7 or more)

Substance: 360 (DCWGWHREFVPFIK(COCH2)I; thioether 2-14) [compound 360]
- Evaluation result of binding affinity to FGFR: B (0.5 or more and less than 0.7)

Substance: 240 (HK(COCH2)TWERLIFLGHIAPFHVCR; thioether 2-19 (inferred)) [compound 240]
- Evaluation result of binding affinity to FGFR: A (0.7 or more)

Substance: 276 (QCYVQLYVWGHPAPFYWDK(COCH2)S; thioether 2-19 (inferred)) [compound 276]
- Evaluation result of binding affinity to FGFR: C (0.1 or more and less than 0.5)

Substance: 136 (HCSYELLQFHGHEAPFRVK(COCH2)V; thioether 2-19 (inferred)) [compound 136]
- Evaluation result of binding affinity to FGFR: C (0.1 or more and less than 0.5)
